Measurements taken from patent publication US20030228365A1, “Pharmaceutical formulation” (priority 2002, published 2003).
Where a SMILES comes first, the peptide text is derived from it.

Protocol: A sample of the compound of formula (Ia) in PLG gel was dissolved in aqueous acetonitrile and further diluted with water. The precipitated polymer was subsequently removed by filtration through a membrane filter. The concentration of the compound of formula (Ia) in the filtrate was determined by HPLC.

## CCC[C@H](NC(=O)[C@@H](NC(=O)[C@H](NC(=O)[C@@H](NC(=O)CNC(=O)CN(C)C(C)=O)C(C)C)[C@H](C)CC)[C@@H](C)O)C(=O)N[C@H](C(=O)N[C@@H](CCCN=C(N)N)C(=O)N1CCC[C@H]1C(=O)NCC)[C@@H](C)CC [compound of formula (Ia), N-Ac-Sar-Gly-Val-DIle-Thr-Nva-Ile-Arg-ProNHCH2CH3] (HELM PEPTIDE1{[ac].[Sar].G.V.[dI].T.[Nva].I.R.P.[CCN[*:1]]}$$$$V2.0)
  degradation found by HPLC: no extensive degradation
